Entries after “also recorded” stand apart in the source; their conditions may differ.

In assay [1] the test system is BV173 cells (p210-BCR-ABL). As to the kind of experiment: XTT cell viability, BV173. The assay is classed as cell-based, human. The method, then: FIG. 2: Effect of Compound 16 on leukemia cell lines (Jurkat, Sup-B15 and BV173). Cell viablility (CV) was determined following incubation of the 1 m cells/ml of each cell line with increasing concentration of the Compound 16 [empty vehicle (0.0 μM+IL3), 2.5, 5.0 and 10.0 μM]. CV was measured by the XTT method. The means±SD of triplicates from one representative experiment out of three performed are given.
Effect of Compound 16 on […] Jurkat (immortalized T lymphocytes derived from the peripheral blood of a child suffering from leukemia. Jurkat cells are often used to study acute T cell leukemia, T cell signaling, and the expression of various chemokine receptors in this experiment Jurkat cells are taken as control), Sup-B15 and BV173. Three Ph+ cells were used to assess the effect of Compound 16. Relevant concentration of the compound was added to seeded cells at day 1 (24 hrs) and cytotoxicity and proliferation were assessed at after 24, 48, 72, 96 and 120 h by XTT. The control was cells exposed to empty vehicle (0 μM, green line in each case), 1, 2 and 5 μM concentration of Compound 16 were administered to the three cell lines. […] The means±SD of triplicates from one representative experiment out of three performed are given. It could be concluded that though Compound 16 inhibits Ph+ Sup-B15 and BV173 are responsive towards Compound 16 with the notion that p210-BCR-ABL leukemia cells at lymphoblastic blast crisis stage are quite more sensitive than p185-BCR-ABL ALL cells at corresponding inhibitor concentration.
FIG. 6: Sensitivity of Sup-B15 (p185-BCR-ABL) compared BV173 cells (p210-BCR-ABL) towards increasing concentration of Compound 16. Ph+ cells were used to assess the effect of Compound 16. To assess the antiproliferative effect, cells were incubated with increasing concentration [0, 2, 4, 6, 8, and 10 μM] of Compound 16 and the viability was assessed using XTT. The means±SD of triplicates from one representative experiment out of three performed are given.
In general terms: Tetrazolium dyes change colour on reduction, which living cells bring about.

For assay [2], the system named is p185-Ba/F3 (WT-Ba/F3-p185-BCR-ABL). As to the kind of experiment: Proliferation by trypan blue exclusion, p185-Ba/F3. The format is cell-based, murine. The note with it: p185-Ba/F3, 1.0, 2.0 and 5.0 μM. The method, then: • 1. Ba/F3 cells were obtained from the German Collection of Microorganisms and Cell Cultures (DSMZ, Braunschweig, Germany) and maintained in RPMI 1640 medium supplemented with 10% fetal calf serum (Invitrogen) containing 10 ng/ml of interleukin-3 (Cell Concepts, Umkirch, Germany). Ecotropic Phoenix cells and Rat-1 cells were cultured in Dulbecco's modified Eagle's medium supplemented with 10% fetal calf serum. GNF-2 (Sigma-Adrich, Steinheim, Germany) was dissolved in dimethyl sulfoxide and added at a final concentration of […]. Cell growth was assessed by dye exclusion using Trypan blue. Proliferation was assessed using the XTT proliferation kit (Roche, Mannheim, Germany), according to the manufacturer's instructions. • 2. Ba/F3: IL-3 dependent lymphatic murine pro B cell line. […]
FIGS. 4A and 4B. […] All cell lines were treated with the indicated concentrations of Compound 16 for total period of five days and proliferation was determined by trypan blue exclusion of viable cells. […] For factor-independent growth, the number of viable cells was determined at day 3 by trypan blue dye exclusion.

Assay [3] deals with Jurkat. In words: XTT cell viability, Jurkat. The assay is classed as cell-based, human. The note with it: increasing concentration up to 10 μM. Here is the method: • 1. Ba/F3 cells were obtained from the German Collection of Microorganisms and Cell Cultures (DSMZ, Braunschweig, Germany) and maintained in RPMI 1640 medium supplemented with 10% fetal calf serum (Invitrogen) containing 10 ng/ml of interleukin-3 (Cell Concepts, Umkirch, Germany). Ecotropic Phoenix cells and Rat-1 cells were cultured in Dulbecco's modified Eagle's medium supplemented with 10% fetal calf serum. GNF-2 (Sigma-Adrich, Steinheim, Germany) was dissolved in dimethyl sulfoxide and added at a final concentration of […]. Cell growth was assessed by dye exclusion using Trypan blue. Proliferation was assessed using the XTT proliferation kit (Roche, Mannheim, Germany), according to the manufacturer's instructions. • 2. Ba/F3: IL-3 dependent lymphatic murine pro B cell line. Ba/F3 cells expressing either p185-BCR-ABL1 (p185-BCR-ABL-Ba/F3) or p210-BCR-ABL (p210-BCR-ABL-Ba/F3). p185-BCR-ABL1 (activated kinases substitute for the IL-3 signaling and therefore render the cells IL3 independent. Ba/F3 cells expressing either p185-BCR-ABL (p185-Ba/F3) or p210-BCR-ABL (p210-Ba/F3). Ba/F3 cells obtained from the German Collection of Microorganisms and Cell Cultures (DSMZ, Braunschweig, Germany). • 3. Mutant transduced Ba/F3 cells (T315I-p185-BCR-ABL1 or T315I-p210-BCR-ABL1): Ba/F3 cells expressing either the mutated forms T315I-p185-BCR-ABL1 or T315I-p210-BCR-ABL1. • 4. WT-Sup-B15: A Ph+ ALL cell line harboring the p185-BCR-ABL. Sup-B15: established from the bone marrow of a child with acute lymphoblastic leukemia (B cell precursor ALL) in second relapse in 1984; described in the literature to carry the ALL-variant (m-BCR) of the BCR-ABL1 fusion gene (e1-a2) correct, because it results in the p185-BCR-ABL version. • 5. […]
FIG. 2: Effect of Compound 16 on leukemia cell lines (Jurkat, Sup-B15 and BV173). Cell viablility (CV) was determined following incubation of the 1 m cells/ml of each cell line with increasing concentration of the Compound 16 [empty vehicle (0.0 μM+IL3), 2.5, 5.0 and 10.0 μM]. CV was measured by the XTT method. […]

The test system of assay [4] is PH (Ph+ AKI sensitive culture). As to the kind of experiment: Proliferation by dye exclusion after three days, PH. The format is cell-based, human. Here is the method: FIG. 3. […] Cells were exposed to increasing concentration of 2.5, 5 and 10 μM of Compound 16. The negative control cell lines Ph− ALL HP was irresponsive to increasing concentration of Compound 16 (up to 10 μM). […] All four cell lines were plated in duplicates at the indicated concentrations, and proliferation was assessed after three days by dye exclusion of viable cells. […] The sensitivity of Ph+ cells to Compound 16 underlines the involvement of BCR-ABL in the antiproliferative mechanism. Death induction of BV173 cells is well taken as an indication of the ability of such group of compounds to overcome resistance that is originated in non-mutational grounds. However, the ability overcome the resistant T315I-BCR-ABL mutant, as shown in the dose-dependent manner of KÖ (circles), might be indicative for a non-ATP competitive mechanism of action.

By IC50 is commonly meant the concentration at which inhibition is half-maximal. As to `COc1ccc(C(=O)N2CCN(c3cc(Nc4ccc(OC(F)(F)F)cc4)ncn3)CC2)cc1OC` [Compound 16], the cells wiped entry in assay [1] (2.5 μM) is given as “around 100%”. Further, the concentration for half-maximal inhibition (IC50) was approximately 2000 nM in assay [1] (BV173, XTT, estimated) and approximately 2100 nM in assay [4]. Moreover, the “antiproliferative response (in words)” value is on record as “most sensitive” in assay [1] (BV173, increasing concentration up to 10 μM) and “highly insensitive; also recorded: irresponsive” in assay [3]. Also, the “concentration sufficient to block proliferation” value in assay [1] (within 24 hours exposure) is 1 µM. Also, the “effect on proliferation (in words)” value in assay [2] is given as “inhibits the proliferation”.

Values taken from patent US20250228851A1, “ALLOSTERIC INHIBITOR COMPOUNDS FOR OVERCOMING CANCER RESISTANCE” (priority 2021, published 2025).
